Measurements published in patent US20200031866A1, “PEPTIDE INHIBITORS OF SODIUM CHANNELS” (SPYRYX BIOSCIENCES, INC., priority 2016, published 2020).
Square brackets hold non-standard residues; d marks the D form. Peptide text beside a SMILES is read from it.

Assays:
alpha-ENaC = molecular target: T1, alpha-ENaC (Homo sapiens, UniProt P37088); assay: Internalization of alpha-ENaC in HEK293T cells, GFP-tagged alpha-ENaC co-expressed only with gamma ENaC and no beta-ENaC; format: cell-based; conditions: FIG. 6
T1 construct: expressed in transfected cells; host or cells: HEK293T
T1 sequence (P37088 1-669): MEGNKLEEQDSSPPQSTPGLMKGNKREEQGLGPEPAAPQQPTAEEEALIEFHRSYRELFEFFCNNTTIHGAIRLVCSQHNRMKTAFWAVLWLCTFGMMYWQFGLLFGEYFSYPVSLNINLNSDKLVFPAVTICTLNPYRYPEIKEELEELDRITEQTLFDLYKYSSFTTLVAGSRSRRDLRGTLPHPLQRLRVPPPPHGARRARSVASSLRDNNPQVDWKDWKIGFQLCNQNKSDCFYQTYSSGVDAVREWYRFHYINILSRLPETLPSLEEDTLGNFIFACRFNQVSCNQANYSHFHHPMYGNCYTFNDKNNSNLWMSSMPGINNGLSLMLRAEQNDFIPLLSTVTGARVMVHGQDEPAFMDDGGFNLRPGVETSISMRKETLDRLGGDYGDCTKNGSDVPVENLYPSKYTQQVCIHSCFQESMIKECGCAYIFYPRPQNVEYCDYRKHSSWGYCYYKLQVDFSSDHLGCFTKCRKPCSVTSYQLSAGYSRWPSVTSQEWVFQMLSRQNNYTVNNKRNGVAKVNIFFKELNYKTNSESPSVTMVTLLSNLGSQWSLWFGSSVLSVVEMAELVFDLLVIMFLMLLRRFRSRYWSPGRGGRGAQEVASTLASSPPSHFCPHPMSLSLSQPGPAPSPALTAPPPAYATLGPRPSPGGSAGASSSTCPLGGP
Procedure: […] Am J Physiol Lung Cell Mol Physiol. 2013 December; 305(12):L990-L1001. doi: 10.1152/ajplung.00103.2013. Epub 2013 October; Garland et al. Proc Natl Acad Sci USA. 2013 Oct. 1; 110(40):15973-8. doi: 10.1073/pnas.1311999110. Epub 2013 Sep. 16.; Tan et al. J Physiol. 2014 Dec. 1; 592(Pt 23):5251-68). Twenty-four hours later, peptide or vehicle control were added at t=0 and fluorescence was read using a Tecan M1000 plate reader 3 h later. Fluorescence was read at 488 nm (excitation)/510 nm (emission).

[1] = molecular target: T2, epithelial sodium channels (Homo sapiens, UniProt P37088+P51168+P51170); assay: Airway surface liquid hyper absorption in human bronchial epithelial cultures from CF patients; format: cell-based
T2 construct: human bronchial epithelial cultures from CF patients; endogenous in cells; host or cells: human bronchial epithelial cultures from CF patients
T2 sequence (P37088 1-669): T1 sequence (P37088 1-669)
T2 sequence (P51168 1-640): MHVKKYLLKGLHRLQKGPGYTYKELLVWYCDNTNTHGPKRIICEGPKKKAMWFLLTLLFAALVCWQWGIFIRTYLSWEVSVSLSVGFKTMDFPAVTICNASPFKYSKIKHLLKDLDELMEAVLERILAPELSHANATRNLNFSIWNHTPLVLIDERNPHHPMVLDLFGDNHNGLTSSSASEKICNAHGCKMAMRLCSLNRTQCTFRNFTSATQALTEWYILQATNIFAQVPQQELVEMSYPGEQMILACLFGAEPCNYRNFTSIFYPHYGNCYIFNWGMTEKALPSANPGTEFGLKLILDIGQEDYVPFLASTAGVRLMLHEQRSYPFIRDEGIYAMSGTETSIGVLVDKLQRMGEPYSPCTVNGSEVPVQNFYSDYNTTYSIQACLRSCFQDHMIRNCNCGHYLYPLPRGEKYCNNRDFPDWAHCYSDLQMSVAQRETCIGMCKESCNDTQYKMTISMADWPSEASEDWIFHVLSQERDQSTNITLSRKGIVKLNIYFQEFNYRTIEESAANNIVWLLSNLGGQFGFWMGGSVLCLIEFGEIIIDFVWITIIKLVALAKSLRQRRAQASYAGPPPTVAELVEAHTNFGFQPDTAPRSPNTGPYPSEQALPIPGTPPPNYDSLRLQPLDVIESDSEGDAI
T2 sequence (P51170 1-649): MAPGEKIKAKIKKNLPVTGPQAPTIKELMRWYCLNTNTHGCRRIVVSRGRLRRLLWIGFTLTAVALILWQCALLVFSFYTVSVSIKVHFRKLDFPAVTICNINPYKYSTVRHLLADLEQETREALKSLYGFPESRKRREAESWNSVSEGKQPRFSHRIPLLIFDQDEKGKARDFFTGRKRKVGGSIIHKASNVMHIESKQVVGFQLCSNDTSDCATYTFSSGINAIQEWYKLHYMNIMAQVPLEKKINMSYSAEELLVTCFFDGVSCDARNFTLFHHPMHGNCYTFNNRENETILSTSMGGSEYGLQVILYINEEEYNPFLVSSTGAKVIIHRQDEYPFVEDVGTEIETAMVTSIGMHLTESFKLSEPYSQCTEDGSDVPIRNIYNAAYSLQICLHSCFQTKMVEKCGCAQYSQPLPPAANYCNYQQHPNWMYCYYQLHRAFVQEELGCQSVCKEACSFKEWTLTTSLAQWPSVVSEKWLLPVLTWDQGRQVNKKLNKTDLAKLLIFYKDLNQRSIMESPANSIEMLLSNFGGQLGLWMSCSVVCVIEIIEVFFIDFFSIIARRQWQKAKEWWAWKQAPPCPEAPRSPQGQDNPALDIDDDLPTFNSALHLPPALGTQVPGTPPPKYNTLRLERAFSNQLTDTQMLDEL

CC[C@H](C)[C@H](NC(=O)[C@@H]1CCCN1C(=O)[C@H](CC(C)C)NC(=O)[C@@H](C)NC(=O)[C@@H](C)N)C(=O)N1CCC[C@H]1C(=O)N[C@@H](CC(C)C)C(=O)N[C@@H](CC(=O)O)C(=O)N[C@@H](CCC(N)=O)C(=O)N[C@H](C(=O)N[C@H](C)C(=O)N[C@H](C)C(N)=O)[C@@H](C)O [SEQ ID NO:128, aaLPIPLDQTaa] (H-[dA][dA]LPIPLDQT[dA][dA]-NH2)
effect on alpha-ENaC (alpha-ENaC): no effect
duration of prevention of airway surface liquid hyper absorption following a single dose [1]: > 8 h
